This data set is described as follows: In-vivo pharmacokinetics study in rats after oral administration. The following applies: 1 mL, PPS conc. 4.64 mg/mL. As to the method: The bioavailability of PPS from the formulations of this invention can be evaluated in rats upon oral administration by gavage of the powder dispersion in comparison to the solution of non-formulated PPS
Plasma concentration versus time curve were evaluated in an in-vivo pharmacokinetics study carried out in rats after oral administration of 1 mL of a PPS aqueous solution having a concentration 4.64 mg/mL (Form I) or 1 mL of the PPS/chitosan nanosuspension (PPS conc. 4.64 mg/mL). In the nanosuspension the ratio between the volume of solution of PPS (6.5 mg/mL) and of solution of chitosan (6.5 mg/mL) used for the production of the nanoparticles was 5:2 (v/v).

Consider “Pentosan Polysulfate sodium [PPS solution]”, for which the “Area under the curve” value worked out at 1306 µg·min/mL and the tmax came out at 1 h.

The record behind these values is patent US12005126B2, “Compositions for oral administration of pentosan polysulfate in form of nanoparticles with improved intestinal absorption” (NEXTRARESEARCH S.R.L., priority 2018, dated 2024).
